# Results reported in patent US12534469B2 (CHILDREN'S HOSPITAL MEDICAL CENTER, priority 2020, dated 2026).
# Assays:
# MOLM14 (D835Y) cells = assay: Combination drug screening, 10 x 10 matrix, cell viability (Cell Titer Glo); assay type: cell-based; conditions: for concentration required to reach a similar level of potentiation as Compound 106: 7.8 nM Venetoclax, 10×10 combination, compared with Compound 106; for Interaction with Venetoclax: combination with Venetoclax, 10 x 10 dataset
# Protocol: Briefly, 10 nL of compounds were acoustically dispensed into 1536-well white polystyrene tissue culture-treated plates with an Echo 550 acoustic liquid handler (Labcyte). MOLM14 (D835Y) cells were then added to compound-containing plates at a density of 500-cells/well in 5 μL of medium. A 10-point custom concentration range was used for all listed drugs. Plates were incubated for 48 hours at standard incubator conditions covered by a stainless steel gasketed lid to prevent evaporation. 48 h post compound addition, 3 μL of Cell Titer Glo (Promega) were added to each well and plates were incubated at room temperature for 15 minutes with the stainless-steel lid in place. Luminescence readings were taken using a Viewlux imager (PerkinElmer) with a 2 second exposure time per plate.
# However, different methodologies may yield different numerical scores, and different definitions of what constitutes a deviation from mere additivity vs true drug synergy.
# However, the utility in certain drug combinations vs others should not be distinguished based on cutoffs between HSA scores, because the score itself is only a relative indicator that is completely dependent on experimental design and is not an absolute number. Furthermore, the concept of what constitutes clinically meaningful drug synergy is something that is still being debated, not only between pharmacologists and physicians, but amongst pharmacologists themselves.
# FLT3 = target: T1, FLT3 (Homo sapiens, UniProt P36888); assay: RBC HotSpot Kinase Assay, FLT3; assay type: biochemical
# T1 construct: purchased Reaction Biology (RBC HotSpot Kinase Assay)
# T1 sequence (P36888 564-958 limits assumed): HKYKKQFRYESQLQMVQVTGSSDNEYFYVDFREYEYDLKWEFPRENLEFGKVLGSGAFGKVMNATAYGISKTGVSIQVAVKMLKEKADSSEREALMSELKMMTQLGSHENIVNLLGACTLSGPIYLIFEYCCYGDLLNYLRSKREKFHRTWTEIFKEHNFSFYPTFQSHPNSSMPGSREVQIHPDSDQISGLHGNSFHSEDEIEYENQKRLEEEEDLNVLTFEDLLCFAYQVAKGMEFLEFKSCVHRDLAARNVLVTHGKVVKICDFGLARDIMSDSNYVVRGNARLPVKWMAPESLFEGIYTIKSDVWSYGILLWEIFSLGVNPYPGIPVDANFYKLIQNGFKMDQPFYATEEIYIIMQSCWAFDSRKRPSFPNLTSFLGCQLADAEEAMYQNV
# Procedure, shortened: (§1)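 Radiometric filter-binding (HotSpot) activity assay on isolated recombinant kinase, possibly truncated or catalytic domain only, in 20 mM Hepes pH 7.5, 10 mM MgCl2, 1 mM EGTA, 2 mM DTT, 1% DMSO. Compound preincubated 20 min with kinase and substrate, then ^33P-ATP added. Reaction 2 h at room temperature, read by P81 filter binding.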
# IRAK1 = target: T2, IRAK1 (Homo sapiens, UniProt P51617); assay: RBC HotSpot Kinase Assay, IRAK1; assay type: biochemical
# T2 construct: purchased Reaction Biology (RBC HotSpot Kinase Assay)
# T2 sequence (P51617 whole entry): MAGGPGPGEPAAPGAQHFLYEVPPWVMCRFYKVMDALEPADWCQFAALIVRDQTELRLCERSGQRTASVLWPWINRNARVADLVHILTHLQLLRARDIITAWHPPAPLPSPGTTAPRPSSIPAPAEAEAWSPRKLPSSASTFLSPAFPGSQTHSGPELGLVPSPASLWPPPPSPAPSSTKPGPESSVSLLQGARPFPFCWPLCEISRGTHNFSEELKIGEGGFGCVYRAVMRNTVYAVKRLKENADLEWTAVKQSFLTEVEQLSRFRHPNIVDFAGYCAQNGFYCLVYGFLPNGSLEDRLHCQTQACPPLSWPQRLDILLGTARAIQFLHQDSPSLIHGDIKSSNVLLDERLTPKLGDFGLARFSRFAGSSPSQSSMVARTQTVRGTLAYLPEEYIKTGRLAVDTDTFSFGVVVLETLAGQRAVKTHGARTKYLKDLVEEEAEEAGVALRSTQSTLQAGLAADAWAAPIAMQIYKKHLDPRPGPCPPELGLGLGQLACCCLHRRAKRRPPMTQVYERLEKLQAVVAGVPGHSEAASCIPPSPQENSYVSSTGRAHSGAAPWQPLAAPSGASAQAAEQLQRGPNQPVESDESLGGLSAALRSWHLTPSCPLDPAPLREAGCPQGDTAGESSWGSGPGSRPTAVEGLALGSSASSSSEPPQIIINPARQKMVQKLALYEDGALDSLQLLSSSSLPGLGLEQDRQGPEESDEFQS
# Procedure, shortened: as §1
# IRAK4 = target: T3, IRAK4 (Homo sapiens, UniProt Q9NWZ3); assay: RBC HotSpot Kinase Assay, IRAK4; assay type: biochemical; set-up: purchased Reaction Biology (RBC HotSpot Kinase Assay)
# T3 sequence (Q9NWZ3 1-460): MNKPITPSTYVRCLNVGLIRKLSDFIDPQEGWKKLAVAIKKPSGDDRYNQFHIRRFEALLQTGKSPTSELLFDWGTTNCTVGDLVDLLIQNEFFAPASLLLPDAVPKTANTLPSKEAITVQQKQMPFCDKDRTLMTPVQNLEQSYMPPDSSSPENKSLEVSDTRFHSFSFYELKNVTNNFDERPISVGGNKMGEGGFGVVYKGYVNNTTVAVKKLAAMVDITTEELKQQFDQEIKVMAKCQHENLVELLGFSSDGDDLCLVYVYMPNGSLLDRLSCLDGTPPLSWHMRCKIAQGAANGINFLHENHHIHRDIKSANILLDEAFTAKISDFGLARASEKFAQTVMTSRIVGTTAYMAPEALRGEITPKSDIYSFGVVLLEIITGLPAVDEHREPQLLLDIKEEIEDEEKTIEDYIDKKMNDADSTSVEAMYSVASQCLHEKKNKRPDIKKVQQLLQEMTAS
# Procedure, shortened: as §1
IC50 (FLT3) [nM],IC50 (IRAK1) [nM],IC50 (IRAK4) [nM],SMILES,"Sum Excess HSA (MOLM14 (D835Y) cells; combination with Compound 96, 10 x 10 dataset, 48 hours)",concentration required to reach a similar level of potentiation as Compound 106 (MOLM14 (D835Y) cells),Interaction with Venetoclax (MOLM14 (D835Y) cells)
–,–,–,CC(C)[C@@H](CS(=O)(=O)C(C)C)N1C(=O)[C@@](C)(CC(=O)O)C[C@H](c2cccc(Cl)c2)[C@H]1c1ccc(Cl)cc1 [AMG-232],−222.9,–,–
–,–,–,"Cc1cc(-c2nc(C(=O)Nc3cc4oc(N5CCOCC5)nc4nc3N3CC[C@@H](O)C3)co2)ccn1 [CA-4948, reference compound]",–,substantially higher concentrations,synergize
–,–,–,"Cc1cnc(-c2ccc(-c3ccc(NC(=O)Nc4c(F)cc(F)cc4F)cc3F)c3c2C(=O)NC3)[nH]1 [CG-806, reference compound]",–,substantially higher concentrations,synergize
1,3590,36,"FC(F)[C@H]1CNC[C@@H]1Nc1cccc(-c2cnc3ccc(C4CC4)nn23)n1 [Compound 72, 6-(6-cyclopropylimidazo[1,2-b]pyridazin-3-yl)-N-((3R,4S)-4-(difluoromethyl)pyrrolidin-3-yl)pyridin-2-amine]",–,–,–
10,1830,292,"F[C@@H]1CNCC[C@H]1Nc1cccc(-c2cnc3ccc(C4CC4)nn23)n1 [Compound 73, 6-(6-cyclopropylimidazo[1,2-b]pyridazin-3-yl)-N-((3R,4R)-3-fluoropiperidin-4-yl)pyridin-2-amine]",–,–,–
4,5860,148,"CO[C@H]1CNC[C@@H]1Nc1cccc(-c2cnc3ccc(C4CC4)nn23)n1 [Compound 74, 6-(6-cyclopropylimidazo[1,2-b]pyridazin-3-yl)-N-((3S,4S)-4-methoxypyrrolidin-3-yl)pyridin-2-amine]",–,–,–
0.6,3140,345,"c1cc(N[C@@H]2CCCNC2)nc(-c2cnc3ccc(C4CC4)nn23)c1 [Compound 76, (R)-6-(6-cyclopropylimidazo[1,2-b]pyridazin-3-yl)-N-(piperidin-3-yl)pyridin-2-amine]",–,–,–
6,1860,29,"FC(F)c1ccc2ncc(-c3cccc(N[C@H]4CNC[C@@H]4F)n3)n2n1 [Compound 78, 6-(6-(difluoromethyl)imidazo[1,2-b]pyridazin-3-yl)-N-((3S,4S)-4-fluoropyrrolidin-3-yl)pyridin-2-amine]",–,–,–
3,4570,21,"F[C@H]1CNC[C@@H]1Nc1cccc(-c2cnc3ccc(C(F)(F)F)nn23)n1 [Compound 79, N-((3S,4S)-4-fluoropyrrolidin-3-yl)-6-(6-(trifluoromethyl)imidazo[1,2-b]pyridazin-3-yl)pyridin-2-amine]",–,–,–
11,3420,231,"CC(C)(C)c1ccc2ncc(-c3cccc(N[C@H]4CNC[C@@H]4F)n3)n2n1 [Compound 80, 6-(6-(tert-butyl)imidazo[1,2-b]pyridazin-3-yl)-N-((3S,4S)-4-fluoropyrrolidin-3-yl)pyridin-2-amine]",–,–,–
2,937,37,"COc1cc2ncc(-c3cccc(N[C@H]4CNC[C@@H](F)C4)n3)n2nc1C1(C(F)(F)F)CC1 [Compound 86, N-((3R,5S)-5-fluoropiperidin-3-yl)-6-(7-methoxy-6-(1-(trifluoromethyl)cyclopropyl)imidazo[1,2-b]pyridazin-3-yl)pyridin-2-amine]",–,–,–
3,1650,83,"COc1ccc2ncc(-c3cccc(N[C@H]4CNC[C@@H]4F)n3)n2n1 [Compound 87, N-((3S,4S)-4-fluoropyrrolidin-3-yl)-6-(6-methoxyimidazo[1,2-b]pyridazin-3-yl)pyridin-2-amine]",–,–,–
22,7240,959,"F[C@H]1CNC[C@@H]1Nc1cccc(-c2cnc3ccc(Oc4ccccc4)nn23)n1 [Compound 88, N-((3S,4S)-4-fluoropyrrolidin-3-yl)-6-(6-phenoxyimidazo[1,2-b]pyridazin-3-yl)pyridin-2-amine]",–,–,–
5,8050,58,"CNc1ccc2ncc(-c3cccc(N[C@H]4CNC[C@@H]4F)n3)n2n1 [Compound 89, 3-(6-(((3S,4S)-4-fluoropyrrolidin-3-yl)amino)pyridin-2-yl)-N-methylimidazo[1,2-b]pyridazin-6-amine]",–,–,–
4,6290,61,"CN(C)c1ccc2ncc(-c3cccc(N[C@H]4CNC[C@@H]4F)n3)n2n1 [Compound 90, 3-(6-(((3S,4S)-4-fluoropyrrolidin-3-yl)amino)pyridin-2-yl)-N,N-dimethylimidazo[1,2-b]pyridazin-6-amine]",–,–,–
6,1640,101,"F[C@H]1CNC[C@@H]1Nc1cccc(-c2cnc3ccc(NC4CCC4)nn23)n1 [Compound 91, N-cyclobutyl-3-(6-(((3S,4S)-4-fluoropyrrolidin-3-yl)amino)pyridin-2-yl)imidazo[1,2-b]pyridazin-6-amine]",–,–,–
78,1640,1080,"F[C@H]1CNC[C@@H]1Nc1cccc(-c2cnc3ccc(NC4CCCCC4)nn23)n1 [Compound 92, N-cyclohexyl-3-(6-(((3S,4S)-4-fluoropyrrolidin-3-yl)amino)pyridin-2-yl)imidazo[1,2-b]pyridazin-6-amine]",–,–,–
4,2680,39,"F[C@H]1CNC[C@@H]1Nc1cccc(-c2cnc3ccc(N4CCC4)nn23)n1 [Compound 93, 6-(6-(azetidin-1-yl)imidazo[1,2-b]pyridazin-3-yl)-N-((3S,4S)-4-fluoropyrrolidin-3-yl)pyridin-2-amine]",–,–,–
6,1050,33,"F[C@H]1CNC[C@@H]1Nc1cccc(-c2cnc3ccc(N4CCCCC4)nn23)n1 [Compound 94, N-((3S,4S)-4-fluoropyrrolidin-3-yl)-6-(6-(piperidin-1-yl)imidazo[1,2-b]pyridazin-3-yl)pyridin-2-amine]",–,–,–
4,1180,24,"F[C@H]1CNC[C@@H]1Nc1cccc(-c2cnc3ccc(N4CCOCC4)nn23)n1 [Compound 95, N-((3S,4S)-4-fluoropyrrolidin-3-yl)-6-(6-morpholinoimidazo[1,2-b]pyridazin-3-yl)pyridin-2-amine]",–,–,–
< 0.5,375,2,"COc1cc2ncc(-c3cccc(N[C@H]4CNC[C@@H]4C)n3)n2nc1C1CC1 [Compound 98, 6-(6-cyclopropyl-7-methoxyimidazo[1,2-b]pyridazin-3-yl)-N-((3R,4S)-4-methylpyrrolidin-3-yl)pyridin-2-amine]",–,–,–
9,3190,323,"CC(C)Oc1cnn2c(-c3cccc(N[C@H]4CNC[C@@H]4F)n3)cnc2c1 [Compound 115, N-((3S,4S)-4-fluoropyrrolidin-3-yl)-6-(7-isopropoxyimidazo[1,2-b]pyridazin-3-yl)pyridin-2-amine]",–,–,–
< 0.5,75,< 0.5,COc1cc2ncc(-c3cccc(N[C@H]4CNC[C@@H]4F)n3)n2nc1-c1cn[nH]c1 [Compound 119],–,–,–
13,> 10000,1980,"COc1cc2ncc(-c3cccc(N[C@@H]4CCCNC4)n3)n2nc1N1CCCC1=O [Compound 137, (R)-1-(7-methoxy-3-(6-(piperidin-3-ylamino)pyridin-2-yl)imidazo[1,2-b]pyridazin-6-yl)pyrrolidin-2-one]",–,–,–
